Test results taken from EP3086659B1, “NUTRITIONAL COMPOSITION FOR THE PREVENTION AND TREATMENT OF COPD AND RELATED SYMPTOMS” (Thompson S.r.L., priority 2013, dated 2015).
Where two headings read alike, the source gives them in different places.

What was measured:
[1] = Clinical study on volunteers: blood (serum) concentration and pharmacokinetic parameters of curcumin after oral administration; type: in vivo, healthy volunteers
Method: Subsequently, up to 1 h, a rapid decrease is observed followed by a gradual decline to 0 in the next three hours. The following Table lists the pharmacokinetic parameters (mean ± SEM). Table
The maximum serum concentration, when administered alone, was just 0.006 µg/ml 1 hour after administration, while in combination with piperine, the maximum serum concentration (Cmax) had increased to 0.18 µg/ml and was reached earlier at 0.75 h from the administration. The volume of distribution (Vd) and the total clearance value (CI) were not calculated for curcumin administered alone as it was not possible to determine the serum levels in most of the measurements of the greater number of subjects. […] 4 and in the preceding table reflect an increase in the bioavailability of curcumin equal to 2000% in the subjects treated with the combination of curcumin and piperine.

Nrf2 [2] = test: Nrf2 mRNA expression by quantitative real-time PCR compared to GAPDH; type: cell-based, Human; details: 15 µM, 6 h
Description: (§1) Curcumin (CUR), N-acetyl-L-cysteine (NAC) and glutathione in reduced (GSH) and oxidised (GSSG) form and other reagents were supplied by Sigma. Human alveolar epithelial cells A549 were purchased from American Type Culture Collection (ATCC CCL-185). […] GRX is a key enzyme in the regulation of the cellular oxidative state, being responsible for the regeneration of GSH from GSSG and in the regeneration of dehydroascorbate.

Nrf2 [3] = test: Expression of Nrf2 protein in nuclear extracts (Western blot); type: cell-based, Human; details: 15 µM, after one hour up to 12h, three independent Western blots
Description: Curcumin (CUR), N-acetyl-L-cysteine (NAC) and glutathione in reduced (GSH) and oxidised (GSSG) form and other reagents were supplied by Sigma. Human alveolar epithelial cells A549 were purchased from American Type Culture Collection (ATCC CCL-185). […] The combination of NAC and CUR induced a slightly higher level of Nrf2 expression.

[4] = system: Human alveolar epithelial cells A549; test: Determination of intracellular glutathione (GSH and GSSG), glutathione reductase-recycling analysis; type: cell-based; details: different concentrations (0-50 µM), 6 hours
Method: Curcumin (CUR), N-acetyl-L-cysteine (NAC) and glutathione in reduced (GSH) and oxidised (GSSG) form and other reagents were supplied by Sigma. Human alveolar epithelial cells A549 were purchased from American Type Culture Collection (ATCC CCL-185). Levels of reduced (GSH) and oxidised (GSSG) Glutathione were measured after exposure of the cells for 6 hours to curcumin, NAC and curcumin and NAC association (ratio 1/1) using the method already described in Calabrese et al. 1998; Motterlini et al. 2000a). Cells harvested in cold PBS were frozen-thawed three times and an aliquot of this suspension was added to a buffer solution containing […] of EDTA and 10 mM of 5,5-dithiobis- (2-nitrobenzoic acid). The total glutathione was measured by spectroscopy (optical density of 412 nm) using the glutathione reductase-recycling analysis. In order to determine the quantity of GSSG, an aliquot of the cell suspension was added to an equal volume of buffer containing EDTA and N-ethylmaleimide (10 mM). The sample was mixed and centrifuged and the supernatant was passed through a Sep-Pak C18 cartridge (Waters, Milford, MA) to remove the excess of N-ethylmaleimide. […] Intracellular glutathione was determined by comparison with a standard curve obtained with standard solutions of GSH and GSSG and was expressed as nmoles/mg protein. […]

[5] = system: glutathione reductase (GRX); test: Glutathione reductase (GRX) mRNA expression by quantitative real-time PCR compared to GAPDH; type: cell-based, Human; details: 15 µM, 6 h
Description: as §1

HO-1 = HO-1 mRNA expression by quantitative real-time PCR compared to GAPDH; type: cell-based, Human; details: 15 µM, 6 h
Description: as §1

Structure (SMILES) | Tmax ([1]; human, 2 g, serum curcumin, oral administration, healthy volunteers (n = 8), mean ± SEM) [h] | Cmax ([1]; human, 2 g, serum curcumin, oral administration, healthy volunteers (n = 8), mean ± SEM, read-out: Cmax) [ng/mL] | Serum levels of curcumin ([1]; oral, 2 g of curcumin alone or with 20 mg of piperine, measurements up to 0.75 h) | Cmax ([1]; serum curcumin, oral administration, healthy volunteers (n = 8), mean ± SEM) [ng/mL] | AUC(0-∞) ([1]; serum curcumin, oral administration, healthy volunteers (n = 8), trapezoidal method, mean ± SEM) [µg/h/mL] | Nrf2 mRNA (Nrf2 [2]) | expression of the protein Nrf2 in the nucleic extracts (Nrf2 [3]) | levels of GSSG [4] | intracellular GSH ([4]; dose-dependent) | glutathione reductase (GRX) mRNA [5] | HO-1 mRNA (HO-1)
COc1cc(/C=C/C(=O)CC(=O)/C=C/c2ccc(O)c(OC)c2)ccc1O [Curcumin, (1E, 6E)-1,7-bis-(4-hydroxy-3-methoxyphenyl)-epta-1,6-dien-3,5-dione] | 1 | 6 | very low or undetectable | 6 ± 5 | 0.004 |  |  |  |  |  | 
CC(=O)N[C@@H](CS)C(=O)O [NAC, N-acetyl-L-cysteine] |  |  |  |  |  | not active | not able to induce an increase | did not increase | increase of GSH | able to induce GRX significantly | not active
